Patent publication US8258186B2, “Pharmaceutical for oral delivery comprising MGBG” (Pathologica, LLC, priority 2009, dated 2012)

Legend:
[1] = Mouse single-dose pharmacokinetics; assay type: in vivo, DBA/1 mice; settings: for AUC / Cmax: plasma
Description: Twenty-four male DBA/1 mice weighing 19.5-24.7 g and aged 7-9 weeks administered the test article, MGBG, as either a single bolus intravenous dose via a lateral tail vein of 1 mg/kg (Group 1, n=12) or as a single oral gavage dose of 10 mg/kg (Group 2, n=12). Each dose group consisted of 4 cohorts of 3 animals each. Group 1 was sampled at 5, 15, and 30 minutes after dosing; and 1, 2, 4, 8, and 24 hours after dosing. Group 2 was sampled at 1, 2, 4, 8, 12, 24, and 36 hours after dosing. Starting with the first time point, a new cohort was sampled at each successive time point up to the 1-hour (Group 1) or 12-hour (Group 2) time point. The order of sampling among the cohorts was repeated for the subsequent time points (some cohorts may have been bled only once). The second bleed for each cohort was terminal. Animals were sacrificed via CO2 inhalation anaesthesia after final blood collection.
The samples were centrifuged under refrigerated conditions following completion of sample collection at each interval. The resulting plasma was separated and stored frozen at approximately −70° C. until analysis. Analysis was performed by LC/MS/MS. Pharmacokinetic analyses were performed on the mean MGBG plasma concentration versus time data using the non-compartmental approach (linear trapezoidal rule for AUC calculations). The WinNonlin sparse sampling tool was used for PK calculations.

in vivo = assay: in vivo; design: species or system beagle dogs; settings: male, beagle, dog
Description: (§1) Two groups of three male beagle dogs weighing 9.0-10.7 kg and aged 8-30 months were fasted overnight before being administered the test article, MGBG, as either a single bolus intravenous dose of 1 mg/kg (Group 1) or as a single oral gavage dose of 10 mg/kg (Group 2). Dose formulation analysis verified administered dose solutions as within 17% of targeted concentrations of 1 and 10 mg/kg for Groups 1 and 2, respectively.
Blood samples (approximately 2.0 mL) were collected for plasma MGBG concentration measurement from all intravenously dosed animals prior to dosing and at approximately T=0.083 (5 min), 0.25 (15 min), 0.5 (30 min), 1, 2, 4, 8, and 24 hours after dosing. A similar procedure was used with orally dosed animals was used, except that collection took place at T=1, 2, 4, 8, 12, 24, and 36 hours after dosing. The samples were centrifuged under refrigerated conditions following completion of sample collection at each interval. The resulting plasma was separated and stored frozen at approximately −70° C. until analysis.

[2] = Rhesus macaque single-dose pharmacokinetics; assay type: in vivo, rhesus monkeys
Description: as §1, with “rhesus monkeys” for “beagle dogs weighing 9.0-10.7 kg and aged 8-30 months”, “14%” for “17%”
Blood samples were collected into tubes containing lithium heparin from the femoral vein/artery (approximately 1.0 mL) for plasma MGBG concentration measurement from all intravenously dosed animals prior to dosing and at approximately T=0.083 (5 min), 0.25 (15 min), 0.5 (30 min), 1, 2, 4, 8, and 24 hours after dosing. Blood samples for plasma MGBG concentration measurement were collected from all orally dosed animals prior to dosing at approximately T=1, 2, 4, 8, 12, 24, and 36 hours after dosing. Food was also withheld through the first four hours of blood sample collection.
The samples were centrifuged under refrigerated conditions following completion of sample collection at each interval. The resulting plasma was separated and stored frozen at approximately −70° C. until analysis.
PK analysis was performed on the individual plasma concentration-time profiles for MGBG using the WinNonlin non-compartmental approach (linear trapezoidal rule for AUC calculations). Nominal dose values and sampling times were used for calculations. All MGBG plasma concentration measurements reported as BQL (<2.51 ng/mL) were set equal to zero for the purpose of analysis. Following IV and PO administration of MGBG, plasma PK disposition parameters were calculated using the WinNonlin default selection criteria for the selection of the Lambda Z.
Consequently, a model-dependent two-compartmental analysis was used to calculate bioavailability.

[3] = following IV and PO administration
[4] = male, DBA/1, plasma, single bolus IV 1 mg/kg, mean
[5] = male, DBA/1, plasma, single oral gavage 10 mg/kg, mean
[6] = male, DBA/1, single bolus IV 1 mg/kg, mean
[7] = male, DBA/1, single oral gavage 10 mg/kg, mean
[8] = single oral gavage 10 mg/kg, mean
[9] = male, rhesus monkey, plasma, single bolus IV 1 mg/kg, mean
[10] = male, rhesus monkey, plasma, single oral gavage 10 mg/kg, mean
[11] = male, rhesus monkey, single bolus IV 1 mg/kg, plasma, mean
[12] = male, rhesus monkey, single oral gavage 10 mg/kg, plasma, mean

CC(/C=N/NC(=N)N)=N\NC(=N)N [MGBG, 1,1′[methylethanediylidene]dinitrilodiguanidine]
systemic plasma MGBG exposure [1, 3]: observed at all collected plasma time points
clinical findings ([1]; following dosing): Abnormal clinical findings were not noted
bioavailability ([1]; male, DBA/1, plasma, oral 10 mg/kg vs IV 1 mg/kg): 44.3%
Tmax [1, 4]: 0.083 h
half-life [1, 4]: 13 h
Tmax [1, 5]: 1 h
half-life [1, 5]: 11.8 h
AUC [1, 6]: 336 ng·h/mL
Cmax [1, 6]: 181 ng/mL
AUC [1, 7]: 1420 ng·h/mL
Cmax [1, 7]: 106 ng/mL
Clobs ([1]; single bolus IV 1 mg/kg, mean): 49.6 mL/min/kg
VSSobs ([1]; single bolus IV 1 mg/kg, mean): 38.3 L/kg
Clobs [1, 8]: 6.68 mL/min/kg
AUC (in vivo; iv, 1 mg/kg): 1410 ng·h/mL
Clobs (in vivo; iv, 1 mg/kg): 13.7 mL/min/kg
Cmax (in vivo; iv, 1 mg/kg): 1180 ng/mL
Tmax (in vivo; iv, 1 mg/kg): 0.083 h
VSSobs (in vivo; iv, 1 mg/kg): 14.6 L/kg
half-life (in vivo; iv, 1 mg/kg): 15.8 h
AUC (in vivo; po, 10 mg/kg): 6290 ng·h/mL
Clobs (in vivo; po, 10 mg/kg): 8.29 mL/min/kg
Cmax (in vivo; po, 10 mg/kg): 616 ng/mL
Tmax (in vivo; po, 10 mg/kg): 1 h
bioavailability (in vivo; po, 10 mg/kg): 49%
half-life (in vivo; po, 10 mg/kg): 15.5 h
systemic plasma MGBG exposure [2, 3]: observed at all collected plasma time points
bioavailability ([2]; male, rhesus monkey, plasma, oral 10 mg/kg vs IV 1 mg/kg, two-compartmental analysis used): 35%
Tmax [2, 9]: 0.139 h
half-life [2, 9]: 30.8 h
Tmax [2, 10]: 3.33 h
half-life [2, 10]: 24.2 h
AUC [2, 11]: 1660 ng·h/mL
Cmax [2, 11]: 757 ng/mL
AUC [2, 12]: 4240 ng·h/mL
Cmax [2, 12]: 192 ng/mL
Clobs ([2]; single bolus IV 1 mg/kg, mean): 13.7 mL/min/kg
VSSobs ([2]; single bolus IV 1 mg/kg, mean): 13.2 L/kg
Clobs [2, 8]: 6.63 mL/min/kg
